From patent publication US20120035217A1, “Bis Aromatic Compounds for Use as LTC4 Synthase Inhibitors” (BIOLIPOX AB, priority 2009, published 2012) come the findings set out here.

The term IC50 denotes the concentration at which inhibition is half-maximal. The % inhibition is the drop in the measured response relative to a control, in per cent.

This assay deals with T1, Recombinant human LTC4 synthase (Homo sapiens, UniProt Q16873).
T1 construct: made in house; host or cells: Pichia pastoris ('Piccia pastoralis' [sic])
T1 sequence (Q16873 1-150): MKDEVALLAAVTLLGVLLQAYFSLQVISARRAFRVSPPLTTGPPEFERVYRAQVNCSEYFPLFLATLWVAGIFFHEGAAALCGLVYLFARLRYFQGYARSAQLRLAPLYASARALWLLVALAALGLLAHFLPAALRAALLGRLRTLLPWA
Put plainly: Biological in vitro assay: LTC4 synthase conversion of LTA4 to LTC4, HTRF detection. The conditions noted are these: for % inhibition: total concentration of title compound in the assay 10 μM. The class given is biochemical. Here is the method:
In the assay, LTC4 synthase catalyses the reaction where the substrate LTA4 is converted to LTC4. Recombinant human LTC4 synthase is expressed in Piccia pastoralis and the purified enzyme is dissolved in 25 mM tris-buffer pH 7.8 supplemented with 0.1 mM glutathione (GSH) and stored at −80° C. The assay is performed in phosphate buffered saline (PBS) pH 7.4 and 5 mM GSH in 384-well plates.
The following is added chronologically to each well:
1. 48 μL LTC4 synthase in PBS with 5 mM GSH. The total protein concentration in this solution is 0.5 μg/mL. 2. 1 μL inhibitor in DMSO (final concentration 10 μM). 3. Incubation of the plate at room temperature for 10 min. 4. 1 μL LTA4 (final concentration 2.5 μM). 5. Incubation of the plate at room temperature for 5 min. 6. 10 μL of the incubation mixture is analysed using homogenous time resolved fluorescent (HTRF) detection.
For orientation: TR-FRET usually uses a lanthanide donor and a delayed reading to cut background.

Regarding `Cc1cc2ncn(-c3ccc(C(=O)c4ccc(N(C)c5ccc(Cl)cc5)cc4)cc3C(=O)O)c2cc1C` [Example 1, 5-{4-[(4-Chlorophenyl)(methyl)amino]benzoyl}-2-(5,6-dimethyl-1-benzimidazolyl)-benzoic acid], the IC50 turned out to be 288 nM and the “% inhibition” value worked out at 97%. The matching figures for `CN(c1ccc(Cl)cc1)c1ccc(C(=O)c2ccc(-n3cc(-c4ccccc4)nn3)c(C(=O)O)c2)cc1` [Example 2:1, 5-{4-[(4-Chlorophenyl)(methyl)amino]benzoyl}-2-(4-phenyl-1,2,3-triazol-1-yl)-benzoic acid]: 326 nM and 99%.

In the case of `CN(c1ccc(Cl)cc1)c1ccc(C(=O)c2ccc(-n3cc(-c4cccc(Cl)c4)nn3)c(C(=O)O)c2)cc1` [Example 2:2, 5-{4-[(4-Chlorophenyl)(methyl)amino]benzoyl}-2-[4-(3-chlorophenyl)-1,2,3-triazol-1-yl]benzoic acid], the 50% inhibitory concentration (IC50) is 214 nM and the “% inhibition” value was 99%. In the same order, the values of `CN(c1ccc(Cl)cc1)c1ccc(C(=O)c2ccc(-n3nncc3-c3ccccc3)c(C(=O)O)c2)cc1` [Example 3:1, 5-{4-[(4-Chlorophenyl)(methyl)amino]benzoyl}-2-(5-phenyl-1,2,3-triazol-1-yl)-benzoic acid] are 154 nM and 100%. In the same order, the values of `CN(c1ccc(Cl)cc1)c1ccc(C(=O)c2ccc(-n3nncc3-c3cccc(Cl)c3)c(C(=O)O)c2)cc1` [Example 3:2, 5-{4-[(4-Chlorophenyl)(methyl)amino]benzoyl}-2-[5-(3-chlorophenyl)-1,2,3-triazol-1-yl]benzoic acid] are 36 nM and 100%.

Consider `CN(c1ccc(Cl)cc1)c1ccc(C(=O)c2ccc(-c3nccn3-c3ccccc3)c(C(=O)O)c2)nc1` [Example 9, 5-{5-[(4-Chlorophenyl)(methyl)amino]picolinoyl}-2-(1-phenylimidazol-2-yl)benzoic acid], for which the IC50 was 217 nM.
